Measured values as given in US9023813B2 (Nutek Pharma Ltd., priority 2012, dated 2015).

What was measured:
male Sprague Dawley rats = assay: Clinical observations of rats during administration of propofol analogs in the pharmacokinetics study
Experimental: (§1) Blood samples were to be taken pre-dose, during dose and post dose at designated intervals, with the blood quickly processed and stored at −70° C. until analysis.
(§2) Formulations were prepared on the morning of the dosing day and each was passed through a 0.22 μm filter prior to being administered to animals. A standard dose of 0.168 mmol/Kg per analog was administered to each of the rats. […] Analog stability in the formulations was verified by preparing each formulation and harvesting 200 μL aliquots at 0, 1, 2 and 8 hr while standing at room temperature. After harvesting, each sample was immediately frozen in dry ice until analysis; concentrations of test compounds in the samples were examined by HPLC-UV.
(§3) The animals were surgically prepared with indwelling cannula, double cannulation in carotid artery and jugular vein for i.v. infusion. The anesthetic pentobarbital was used during the surgery, and the animals were allowed to recover 3-5 days after surgery before the formulation was dosed. The dose formulation was administered intravenously via the jugular vein cannula. The 16.8 μmol/mL formulation was administered i.v. at a rate of 1 mL/Kg/min for 10 min.

[1] = Pharmacokinetics: plasma concentrations of prodrug and propofol after intravenous infusion (LC/MS/MS); settings: for AUClast: to last detected concentration; for Mean Concentration of Propofol in Rat Plasma After Intravenous Administration: analyte = propofol released from the administered compound; for Pro-drug behaviour (release of propofol in vivo): rats, releasing the propofol in a matter of minutes after infusion
Experimental: as §1, §2, §3
Approximately 0.20 mL blood was collected at each designated time point from carotid artery via a catheter. A total of 12 plasma samples were taken from each animal: 1 pre-dose; 2 during the dose (5 into the 10 min infusion and one just prior termination of the 10 min infusion) and 9 post-infusion at 2, 5, 15, 30 min and 1, 2, 3, 4, and 6 hr post-dose. All blood samples were transferred into plastic microcentrifuge tubes containing 5 μL of K2-EDTA (0.5M) as anti-coagulant and placed on ice until processed for plasma. Blood samples were processed for plasma by centrifugation at approximately 5° C. Plasma samples were then stored in 1.5 mL tubes, quick frozen over dry ice and kept at −70±10° C. until LC/MSMS analysis.
For each, a minimum of 6 standard point curve runs in duplicates, and minimum of 5 standards were back calculated to within ±20% of their nominal concentrations. The LLOQ of each test article in plasma was established and 6 QC samples were included in assay runs of samples to ensure assay performance.
Data Analysis. Plasma concentration versus time data was analyzed by non-compartmental approaches using the WinNonlin software program (version 5.2, Pharsight, Mountain View, Calif.) and the pharmacokinetic parameters T½, CL, Vss, AUC(0-t), AUC(0-inf), MRT, and graphs of plasma concentration versus time calculated for each.

[2] = Solubility determination in D2O by 1H NMR with DSS internal standard
Experimental: Thus the soapy-like solutions obtained were diluted until opalescent and diluted further until the opalescence visually disappeared.

[3] = cited from earlier work
[4] = time post-10 min i.v. infusion, 0.168 mmol/Kg
[5] = analyte = administered compound, Time (h) 0
[6] = analyte = administered compound, Time (h) 0.083
[7] = analyte = administered compound, Time (h) 0.167
[8] = analyte = administered compound, Time (h) 0.2
[9] = analyte = administered compound, Time (h) 0.25
[10] = analyte = administered compound, Time (h) 0.417
[11] = analyte = administered compound, Time (h) 0.667
[12] = analyte = administered compound, Time (h) 1.166
[13] = analyte = administered compound, Time (h) 2.166
[14] = analyte = administered compound, Time (h) 3.166
[15] = analyte = administered compound, Time (h) 4.166
[16] = analyte = administered compound, Time (h) 6.166
[17] = analyte = administered compound
[18] = analyte = administered compound, extrapolated to infinity

| SMILES | Rats recovered at (male Sprague Dawley rats; [4]) | Mean concentration of prodrug and propofol in rat plasma after intravenous infusion administration [1, 5] | Mean concentration of prodrug and propofol in rat plasma after intravenous infusion administration [1, 6] [nM] | Mean concentration of prodrug and propofol in rat plasma after intravenous infusion administration [1, 7] [nM] | Mean concentration of prodrug and propofol in rat plasma after intravenous infusion administration [1, 8] [nM] | Mean concentration of prodrug and propofol in rat plasma after intravenous infusion administration [1, 9] | Mean concentration of prodrug and propofol in rat plasma after intravenous infusion administration [1, 10] | Mean concentration of prodrug and propofol in rat plasma after intravenous infusion administration [1, 11] | Mean concentration of prodrug and propofol in rat plasma after intravenous infusion administration [1, 12] | Mean concentration of prodrug and propofol in rat plasma after intravenous infusion administration [1, 13] | Mean concentration of prodrug and propofol in rat plasma after intravenous infusion administration [1, 14] | Mean concentration of prodrug and propofol in rat plasma after intravenous infusion administration [1, 15] | Mean concentration of prodrug and propofol in rat plasma after intravenous infusion administration [1, 16] | AUClast [1, 17] [µM·h] | Mean Concentration of Propofol in Rat Plasma After Intravenous Administration ([1]; Time (h) 0) | Pro-drug behaviour (release of propofol in vivo) [1] | Relative solubility [2] | further results |
| --- | --- | --- | --- | --- | --- | --- | --- | --- | --- | --- | --- | --- | --- | --- | --- | --- | --- | --- |
| CC(C)c1cccc(C(C)C)c1OC(=O)OCCO[C@H]1O[C@H](CO)[C@@H](O)[C@H](O)[C@H]1O [Compound 32] | recovered at about 26 min | BQL | 4.88 | 4.97 | 2.68 | BQL | BQL | BQL | BQL | BQL | BQL | BQL | BQL | 0.000657 | BQL | very efficient pro-drugs | 12.0 | – |
| CC(C)c1cccc(C(C)C)c1OC(=O)OCCCO[C@H]1O[C@H](CO)[C@@H](O)[C@H](O)[C@H]1O [Compound 33] | recovered at about 30 min | BQL | 16.5 | 23.1 | 9.59 | BQL | BQL | BQL | BQL | BQL | BQL | BQL | BQL | 0.00304 | BQL | very efficient pro-drugs | 5.2 (8.1)^4 | Mean Concentration of Propofol in Rat Plasma After Intravenous Administration ([1]; Time (h) 4.166): BQL; Mean Concentration of Propofol in Rat Plasma After Intravenous Administration ([1]; Time (h) 6.166): BQL |
| CC(C)c1cccc(C(C)C)c1O [Propofol, 2,6-diisopropylphenol, reference compound] | – | – | 21795 | 31510 | 19613 | 13370 nM | 3827 nM | 3122 nM | 1642 nM | 841 nM | 332 nM | 259 nM | 230 nM | 10.576 | BQL | – | – | Rats soporous at (male Sprague Dawley rats; [4]): Rats soporous at about 4 min and; Rats recovered at (male Sprague Dawley rats; time post-10 min infusion, 5% cremophor vehicle): recovered at about 1.5 hr; AUCinf [1, 18]: 12.634 µM·h; MRTinf [1, 18]: 3.48 h; CLp ([1]; analyte = administered compound, total body clearance, dose/AUCinf): 264.7 mL/min/kg; Vdss ([1]; analyte = administered compound, volume of distribution): 61.2 L/kg; Onset ([3]; anesthetic onset): < 30 s; Duration of action ([3]; in vivo): ~5 min; Pain on administration (share of uses) ([3]; standard lipid formulation): 80% |
